The record followed here is US11707511B2, “Vaccine compositions and methods of using the same” (The Board of Supervisors of Louisiana State University and …, priority 2017, dated 2023).

B1: 2D5F7: IgG2b mAb of hybridoma 2D5F7, specific for Fba peptide; VH SEQ ID NO: 68, VL SEQ ID NO: 70 (antibody, V domains shown)
VH: MERHWIFLFLLSVTAGVHSQVQLQQSAAELARPGASVKMSCKASGYTFSSYTMHWVKQRPGQGLEWIGYINPSSGYTDYNQKFKDKTTLTADKSSSTAYMQLSSLTSEDSAVYYCARLYDNYDYYAMDYWGQGTSVTVSS
VL: MDSQAQVLILLLLWVSGTCGDIVMSQSPSSLAVSAGEKVTMSCKSSQSLLNSRIRKNYLAWYQQKPGQSPKLLIYWASTRESGVPDRFTGSGSGTDFTLTISSVQADDLAVYYCKQSYNLLTFGAGTKLELK

The subject of the first test is C. albicans. Description: Universal double chimeric peptide vaccines, protection against candidiasis in mouse model. It is filed as in vivo, Candida albicans. Particulars: Table 11; double peptide vaccine formula feasible for human use. The source says:
Each chimeric peptide conjugate comprises two peptide epitopes.
For the molecule “RGD-PADRE-GPV-M2-KK-GPV-P3: double peptide vaccine 11; amidation (C-terminus) and acetylation (N-terminus) (Ac-RGDAKFVAAWTLKAAACTTTIGSFPQTKDIRKKCIVIIGGGDTATVAKK-NH2; cysteine pairing not given here)”, the “Protection against Candidiasis in mouse model” value was 80-100% and the “Protection against Candidiasis in mouse model (grade word)” value (shortened to “Protection … in mouse model (grade word)”) is listed as “High”.
On the same counts, the results for “RGD-GPV-P3-KK-GPV-M2: double peptide vaccine 4; amidation (C-terminus) and acetylation (N-terminus) (Ac-RGDCIVIIGGGDTATVAKKKKCTTTIGSFPQTKDIR-NH2; cysteine pairing not given here)” are 70-90% and “High”.
Take “PADRE-GPV-M1-GPSL-GPV-P1: double peptide vaccine 1; amidation (C-terminus) and acetylation (N-terminus) (Ac-AKFVAAWTLKAAACFWVNPDCGLKTRGPSLCAILGGSKVSDKI-NH2; cysteine pairing not given here)”: the “Protection against Candidiasis in mouse model” value is reported as 60-90% and the “Protection … in mouse model (grade word)” value is on record as “High”.
The like results for “TT947-967-GPSL-GPV-M1-GPSL-GPV-P1: double peptide vaccine 3; amidation (C-terminus) and acetylation (N-terminus) (Ac-FNNFTVSFWLRVPKVSASHLEGPSLCFWVNPDCGLKTRGPSLCAILGGSKVSDKI-NH2; cysteine pairing not given here)” were, in that order, 40-60% and “medium”.
The like results for “TT830-844-KK-GPV-P3-KK-GPV-M2: double peptide vaccine 6; amidation (C-terminus) and acetylation (N-terminus) (Ac-QYIKANSKFIGITEKKCIVIIGGGDTATVAKKKKCTTTIGSFPQTKDIR-NH2; cysteine pairing not given here)” were, in that order, 40-60% and “medium”.
On the same counts, the results for “RGD-TT830-844-KK-GPV-P3-KK-GPV-M1: double peptide vaccine 8; amidation (C-terminus) and acetylation (N-terminus) (Ac-RGDQYIKANSKFIGITEKKCIVIIGGGDTATVAKKKKCFWVNPDCGLKTR-NH2; cysteine pairing not given here)” are 80-100% and “High”.
As to “RGD-TT947-967-KK-GPV-P3-KK-GPV-M1: double peptide vaccine 9; amidation (C-terminus) and acetylation (N-terminus) (Ac-RGDFNNFTVSFWLRVPKVSASHLEKKCIVIIGGGDTATVAKKKKCFWVNPDCGLKTR-NH2; cysteine pairing not given here)”, the “Protection against Candidiasis in mouse model” value is 20-40% and the “Protection … in mouse model (grade word)” value is given as “Low”.
The like results for “TT947-967-KK-GPV-P3-KK-GPV-M1: double peptide vaccine 7; amidation (C-terminus) and acetylation (N-terminus) (Ac-FNNFTVSFWLRVPKVSASHLEKKCIVIIGGGDTATVAKKKKCFWVNPDCGLKTR-NH2; cysteine pairing not given here)” were, in that order, 70-90% and “High”.
The like results for “PADRE-GPV-M2-KK-GPV-P1: double peptide vaccine 10; amidation (C-terminus) and acetylation (N-terminus) (Ac-AKFVAAWTLKAAACTTTIGSFPQTKDIRKKCAILGGSKVSDKI-NH2; cysteine pairing not given here)” were, in that order, 20-40% and “Low”.
Consider “TT830-844-GPSL-GPV-M1-GPSL-GPV-P1: double peptide vaccine 2; amidation (C-terminus) and acetylation (N-terminus) (Ac-QYIKANSKFIGITEGPSLCFWVNPDCGLKTRGPSLCAILGGSKVSDKI-NH2; cysteine pairing not given here)”, for which the “Protection against Candidiasis in mouse model” value was 40-60% and the “Protection … in mouse model (grade word)” value is on record as “medium”.

In a further test the test system is C. albicans 3153A. Description: Passive transfer of mAbs or mAb cocktails i.p. before lethal i.v. challenge, mouse model of human disseminated candidiasis. It is filed as in vivo, Candida albicans. Conditions: Table 14; mAb removed by absorption with Candida cells before transfer. How it is done:
Passive transfer of MAbs by intraperitoneal (i.p.) route. The preventive effect of peptide-specific mAbs listed in Table 3 and Table 4 in naïve mice was examined by passive transfer experiments. […] For testing, mice received 0.5 ml of each mAb or 1 ml of two mAbs in combination (0.5 ml of each) intraperitoneally. […] The negative control materials tested in mice were single mAb or DPBS. Control mice received 0.5 ml of the DPBS diluents or single mAb treatment. For each condition, 6- to 8-week-old female BALB/c mice (NCI) were given 0.5 ml of test mAb, or 1 ml two mAb cocktails or control materials intraperitoneally, followed 4 h later by 0.1 ml intravenously of defined lethal dose of yeast cells per milliliter of DPBS. Mice were divided into groups with five mice each and three independent experiments were carried out. In some experiments, mice were given the same dose of mAbs or control materials on every other day post-challenge for two weeks, as compared to the protective efficacy of mAb in combinations. All mice were sacrificed on day 50. For animal groups that were challenged non-albicans candida species, determined optimal challenge doses were applied for each candida strain.
The hybridoma clones that produce the universal peptide specific mAbs listed above were generated from mice vaccinated with peptide-pulsed dendritic cell (DC) preparation as described previously (6). The isotype of mAb was determined with a Mouse Monoclonal Antibody Isotyping Kit (Pierce, USA). […] In detail, BALB/c mice were given an i.p dose of each mAb four hours before hematogenous challenged with a lethal dose of C. albicans3153A cells. […] Importantly, passive protection was prevented by removal of the mAbs by absorption with Candida cells before transfer, which provided strong additional evidence for the protection being due to the mAb.
The three cell wall proteins were selected because of expression during human candidiasis and cell wall association, and included fructose-bisphosphate aldolase (Fba); methyltetrahydropteroyltriglutamate-homocysteine methyltransferase (Met6); hyphal wall protein-1 (Hwp1). The hybridoma clones listed at Table 5, which produce the peptide specific mAbs, were generated from mice vaccinated with peptide-pulsed dendritic cell (DC) preparation as described previously (6). The isotype of mAb was determined with a Mouse Monoclonal Antibody Isotyping Kit (Pierce, USA). […] Importantly, passive protection was prevented by removal of the mAbs by absorption with Candida cells before transfer, which provided strong additional evidence for the protection being due to the mAb).
The preventive effect of each universal peptide-specific mAb was examined by passive transfer experiments. […] For testing, 5 mice of each tested group received 0.5 ml of each mAb intraperitoneally. The negative control materials tested in mice were mAbs absorbed with C. albicans yeast cells (3153A) and DPBS. Control mice received 0.5 ml of the DPBS diluents or adsorbed mAb solution. For each condition, 6- to 8-week-old female BALB/c mice (NCI) were given 0.5 ml of test mAb, or control materials intraperitoneally, followed 4 h later by 0.1 ml intravenously of a suspension containing lethal dose of Candida cells per milliliter of DPBS. Mice were divided into groups with five mice each and three independent experiments were carried out. We have developed neutropenic murine models of disseminated infection by C. glabrata, C. tropicalis and C. parapsilosis. To induce neutropenia, naïve mice received a 200 mg/kg dose of cyclophosphamide (CY) by i.p. on day −3. Prolonged neutropenia were maintained for 30-50 days by giving each animal a 150 mg/kg dose of CY by i.p. every 10 days after infection.
As to B1, the “Protection of adsorbed mAb” value is “None”.

The same test, now with this note: Table 14; single mAb, C. albicans.
As for B1, the Protection entry is “(90-100%)” and the “Protection (grade word)” value is given as “High”.
